Data on one compound can be found in patent publication EP0728482A2, “Use of hcp specific compounds to enhance erythropoiesis” (SMITHKLINE BEECHAM CORPORATION, priority 1995, dated 1996).

Assay [1] addresses T1, human src SH2 domain (Homo sapiens, UniProt P12931).
T1 construct: made in house; host or cells: E. coli AR120
The assay is described as follows: ELISA-based SH2 domain / pY peptide binding assay, src SH2 domain. On the procedure: (§1) The inhibitory activity of compounds at the different human SH2 domains was determined in vitro using SH2 domains expressed as fusion proteins in E. coli. The SH2 domains used herein were the human forms of the src SH2 domain, Grb2 SH2 domain, lck SH2 domain, fyn SH2 domain, SH-PTP2 SH2 domain, p85 SH2 domain and hcp SH2 domain.
The fusion proteins containing the src, lck and hcp SH2 domains were expressed as the general sequence: DET1-DET2-spacer-ek-SH2, where DET1, DET2, spacer, ek and SH2 are as described below. DET1 ("defined epitope tag 1") (SEQ ID NO: 1) is an 11 amino acid sequence found in the Human Immunodeficiency Virus Type 1 (HIV-1) envelope protein gp120 (or gp160). Monoclonal antibodies to various epitopes of HIV-1 gp120 (or gp 160) are known in the art, see, for example U.S. Patent 5,166,050. One preferred example is monoclonal antibody 178.1 (see, e.g., Thiriart et al., J. Immunol., 143:1832-1836 (1989)), which was prepared by immunization of mice with a yeast-expressed HIV-1 gp160 molecule from strain BH10 (Ratner et al., Nature, 313:277-284 (1985)). This tag was used for detection of expression (by Western blot), for purification of the protein (by affinity chromatography), and for configuring assays in which the fusion protein was captured or immobilized using the 178.1 antibody. DET2 is a hexa-histidine sequence tag (SEQ ID NO: 2) which binds to nickel-containing resins and was used for purification purposes. Spacer (SEQ ID NO: 3) was utilized to design a BamH1 restriction site at the indicated position of the construct. The term -ek-refers to a recognition sequence (SEQ ID NO: 4) for the enterokinase protease which provides for the optional removal of the tags from the SH2 domain, thus producing an SH2 domain that contains no extraneous amino acids. SH2 domains which contain no extraneous amino acids are preferable to tagged protein for crystallography studies. SH2 refers to the SH2 domains of different proteins.
Procedure 2: Cloning, expression and purification of human src SH2 domain containing tags and an enterokinase proteolytic cleavage site (DET1-DET2-spacer-ek-src SH2).
A DNA sequence encoding protein ek-src SH2 was PCR amplified from a cDNA clone containing the human src gene (c-src SH2 DNA sequence identical to that described in Takeya,T. and Hanafusa, H, 1983 Cell 32:881-890) using the following primers: [formula]
The PCR product was digested with BamHI and XbaI, followed by isolation of the digested fragment on an agarose gel. The fragment was ligated into BamHI-XbaI-digested expression vector containing the tagged chicken src gene DET1-DET2-spacer-SH2 described in Procedure 1 above. In that vector, the BamHI site is located between the coding regions for DET2 and SH2, and the XbaI site is located after the 3' end of the SH2 coding region. The ligation reaction was used to transform E. coli MM294cI^+. The construct DET1-DET2-spacer-ek-src SH2 was confirmed by DNA sequencing (SEQ ID NO: 5) and induced in E. coli strain AR120 as described in Procedure 1 above. A Coomassie-Blue-stained, Western-blot-positive induced protein band with an apparent molecular weight of 16,000 was observed after nalidixic acid induction.
Cells were lysed at neutral pH by sonication in the presance of lysozyme. After centrifugation, the soluble extract was chromatographed on a Ni^++NTA column. After washing the column with equilibration buffer (Tris buffer pH 8 containing 0.5 M Nacl) and the same buffer containing 15 mM imidazole, the protein was eluted in highly purified form with 25 mM imidazole in equilibration buffer.
The binding assays for the SH2 domains and pY peptides were performed in an ELISA-based 96 well plate assay. […]
(In general: In an ELISA, binding on a coated surface is turned into a signal by an enzyme label.)

Assay [2] concerns the target T2, human lck SH2 domain (Homo sapiens, UniProt P06239).
T2 construct: made in house; host or cells: E. coli AR120
The assay is described as follows: ELISA-based SH2 domain / pY peptide binding assay, lck SH2 domain. The settings on record: inhibition of binding of 0.1 uM biotinylated pY peptide to SH2 domain fusion protein. On the procedure:
as §1
The fusion proteins containing the src, lck and hcp SH2 domains were expressed as the general sequence: DET1-DET2-spacer-ek-SH2, where DET1, DET2, spacer, ek and SH2 are as described below. DET1 ("defined epitope tag 1") (SEQ ID NO: 1) is an 11 amino acid sequence found in the Human Immunodeficiency Virus Type 1 (HIV-1) envelope protein gp120 (or gp160). Monoclonal antibodies to various epitopes of HIV-1 gp120 (or gp 160) are known in the art, see, for example U.S. Patent 5,166,050. One preferred example is monoclonal antibody 178.1 (see, e.g., Thiriart et al., J. Immunol., 143:1832-1836 (1989)), which was prepared by immunization of mice with a yeast-expressed HIV-1 gp160 molecule from strain BH10 (Ratner et al., Nature, 313:277-284 (1985)). This tag was used for detection of expression (by Western blot), for purification of the protein (by affinity chromatography), and for configuring assays in which the fusion protein was captured or immobilized using the 178.1 antibody. […]

Some results are limits rather than exact numbers.

T1 sequence (P12931 148-251): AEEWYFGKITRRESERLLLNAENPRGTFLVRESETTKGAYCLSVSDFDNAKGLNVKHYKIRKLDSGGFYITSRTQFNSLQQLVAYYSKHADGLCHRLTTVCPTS
T2 sequence (P06239 127-224 limits assumed): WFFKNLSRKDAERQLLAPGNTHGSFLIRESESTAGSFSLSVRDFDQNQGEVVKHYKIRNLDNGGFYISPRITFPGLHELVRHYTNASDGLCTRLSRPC

`CCCCCCNC(=O)[C@H]1CC[C@H](CNC(=O)c2ccc(C(=O)c3ccc(C(=O)O)cc3)cc2)CC1` [Compound 6, 4-carboxy-benzophenone-4-carboxamido-trans-4-methyl-cyclohexyl-N-hexyl carboxamide]: in assay [1] (Ki calculated from IC50 with the expanded equation), the Ki is 13 µM. For the same compound, the IC50 in assay [1] (inhibition of binding of 0.1 uM biotinylated pY peptide to SH2 domain fusion protein) is 20 µM; in assay [2] it was above 300 µM.

Usually Ki stands for a dissociation constant, usually derived from enzyme kinetics or from competition with a known ligand. For orientation: IC50 means the point on the concentration scale where inhibition reaches its midpoint. The low end stands for greater potency in that assay, the high end for weaker potency in that assay.
